Columns and labels:
[1] = target: T1, Adenosine receptor A2b (Homo sapiens) (UniProt P29275); assay: Displacement of [3H]PSB-603 from human A2B receptor expressed in CHO cell membrane at 1 uM relative to control; type: cell membranes
T1 sequence (whole entry): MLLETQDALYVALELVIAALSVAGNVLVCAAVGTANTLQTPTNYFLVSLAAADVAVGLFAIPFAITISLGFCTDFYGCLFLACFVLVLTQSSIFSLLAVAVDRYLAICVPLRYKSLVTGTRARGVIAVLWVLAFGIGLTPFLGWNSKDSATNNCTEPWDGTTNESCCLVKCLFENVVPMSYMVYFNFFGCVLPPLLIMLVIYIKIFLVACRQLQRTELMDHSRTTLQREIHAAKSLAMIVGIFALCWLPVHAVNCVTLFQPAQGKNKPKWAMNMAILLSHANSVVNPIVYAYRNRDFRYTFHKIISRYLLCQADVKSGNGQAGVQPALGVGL

[2] = target: Adenosine receptor A2a (Rattus norvegicus) (UniProt P30543); assay: Displacement of [3H]MSX from A2A receptor in rat brain striatum membranes at 1 uM measured after 30 mins by liquid scintillation counting method relative to control; type: cell membranes
Adenosine receptor A2a = Adenosine receptor A2a (Rattus norvegicus, UniProt P30543); assay: Displacement of [3H]MSX from A2A receptor in rat brain striatum membranes measured after 30 mins by liquid scintillation counting method; type: cell membranes
[3] = target: T2, Amine oxidase [flavin-containing] B (Homo sapiens, UniProt P27338); assay: Inhibition of recombinant human MAO-B expressed in baculovirus infected BTI insect cells at 10 uM preincubated for 30 mins followed by addition of p-tyramine as substrate measured over 45 mins by Amplex Red MAO assay relative to control; settings: 0.75 h
T2 sequence (P27338 whole entry): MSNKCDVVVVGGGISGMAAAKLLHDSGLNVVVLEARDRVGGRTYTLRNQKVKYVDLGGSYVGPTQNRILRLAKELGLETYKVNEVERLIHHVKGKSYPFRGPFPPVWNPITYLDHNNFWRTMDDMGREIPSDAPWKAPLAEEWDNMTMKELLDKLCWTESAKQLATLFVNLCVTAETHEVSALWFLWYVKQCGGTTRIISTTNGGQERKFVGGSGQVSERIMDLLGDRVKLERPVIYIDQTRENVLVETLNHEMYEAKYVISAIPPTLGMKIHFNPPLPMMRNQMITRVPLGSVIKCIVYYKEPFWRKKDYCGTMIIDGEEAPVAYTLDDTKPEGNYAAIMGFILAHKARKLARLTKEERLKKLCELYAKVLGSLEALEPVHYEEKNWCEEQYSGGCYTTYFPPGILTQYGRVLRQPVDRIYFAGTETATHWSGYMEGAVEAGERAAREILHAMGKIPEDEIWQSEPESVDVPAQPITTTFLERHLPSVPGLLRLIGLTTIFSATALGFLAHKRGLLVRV

Adenosine receptor A1 = target: T3, Adenosine receptor A1 (Rattus norvegicus, UniProt P25099); assay: Displacement of [3H]CCPA from A1 receptor in rat brain cortex membranes by liquid scintillation counting method; type: cell membranes
T3 sequence (P25099 whole entry): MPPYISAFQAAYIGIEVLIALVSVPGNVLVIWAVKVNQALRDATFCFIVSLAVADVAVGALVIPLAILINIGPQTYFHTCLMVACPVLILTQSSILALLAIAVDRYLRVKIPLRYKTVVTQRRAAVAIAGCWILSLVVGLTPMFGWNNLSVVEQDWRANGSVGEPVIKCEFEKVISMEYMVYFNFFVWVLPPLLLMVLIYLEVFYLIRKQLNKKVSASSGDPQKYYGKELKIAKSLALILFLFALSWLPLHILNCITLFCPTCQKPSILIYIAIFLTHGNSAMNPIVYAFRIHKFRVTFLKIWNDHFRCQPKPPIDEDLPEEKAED

[4] = target: T4, Adenosine receptor A3 (Homo sapiens) (UniProt P0DMS8); assay: Displacement of [3H]PSB-11 from human A3 receptor expressed in CHO cell membrane at 10 uM by liquid scintillation counting method relative to control relative to control; type: cell membranes
T4 sequence (whole entry): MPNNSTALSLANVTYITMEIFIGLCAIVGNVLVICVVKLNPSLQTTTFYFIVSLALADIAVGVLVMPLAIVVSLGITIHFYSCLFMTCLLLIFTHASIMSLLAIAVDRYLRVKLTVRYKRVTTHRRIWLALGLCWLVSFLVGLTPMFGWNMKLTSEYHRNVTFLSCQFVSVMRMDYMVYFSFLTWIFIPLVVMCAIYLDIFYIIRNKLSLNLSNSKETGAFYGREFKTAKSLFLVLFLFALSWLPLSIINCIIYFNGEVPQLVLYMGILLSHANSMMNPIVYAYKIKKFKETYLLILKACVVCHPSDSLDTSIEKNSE

[5] = target: T2, Amine oxidase [flavin-containing] B; assay: Inhibition of recombinant human MAO-B expressed in baculovirus infected BTI insect cells preincubated for 30 mins followed by addition of p-tyramine as substrate measured over 45 mins by Amplex Red MAO assay
Adenosine receptor A2b = target: T5, Adenosine receptor A2b (Homo sapiens, UniProt P29275); assay: Displacement of [3H]PSB-603 from human A2B receptor expressed in CHO cell membrane; type: cell membranes
T5 sequence (P29275 whole entry): T1 sequence (whole entry)

[6] = target: T6, Adenosine receptor A1 (Rattus norvegicus) (UniProt P25099); assay: Displacement of [3H]CCPA from A1 receptor in rat brain cortex membranes at 1.5 uM by liquid scintillation counting method; type: cell membranes
T6 sequence (whole entry): T3 sequence (P25099 whole entry)

Adenosine receptor A3 = target: T7, Adenosine receptor A3 (Homo sapiens, UniProt P0DMS8); assay: Displacement of [3H]PSB-11 from human A3 receptor expressed in CHO cell membrane by liquid scintillation counting method relative to control; type: cell membranes
T7 sequence (P0DMS8 whole entry): T4 sequence (whole entry)

[7] = target: T8, Amine oxidase [flavin-containing] A (Homo sapiens, UniProt P21397); assay: Inhibition of recombinant human MAO-A expressed in baculovirus infected BTI insect cells at 10 uM preincubated for 30 mins followed by addition of p-tyramine as substrate measured over 45 mins by Amplex Red MAO assay relative to control; settings: 0.75 h
T8 sequence (P21397 whole entry): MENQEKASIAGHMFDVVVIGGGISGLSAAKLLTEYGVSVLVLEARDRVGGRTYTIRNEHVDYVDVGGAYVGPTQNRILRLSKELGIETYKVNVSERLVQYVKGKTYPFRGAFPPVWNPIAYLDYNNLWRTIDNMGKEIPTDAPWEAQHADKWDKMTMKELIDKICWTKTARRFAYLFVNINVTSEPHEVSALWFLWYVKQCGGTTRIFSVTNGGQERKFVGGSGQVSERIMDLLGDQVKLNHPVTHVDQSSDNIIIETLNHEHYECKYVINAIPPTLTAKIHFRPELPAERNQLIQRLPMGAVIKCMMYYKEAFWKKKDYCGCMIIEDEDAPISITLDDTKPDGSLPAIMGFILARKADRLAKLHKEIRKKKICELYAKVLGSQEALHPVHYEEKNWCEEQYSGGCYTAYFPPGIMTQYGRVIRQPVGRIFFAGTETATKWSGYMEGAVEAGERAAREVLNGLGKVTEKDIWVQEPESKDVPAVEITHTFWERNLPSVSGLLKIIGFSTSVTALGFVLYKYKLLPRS

[8] = target: T8, Amine oxidase [flavin-containing] A; assay: Inhibition of recombinant human MAO-A expressed in baculovirus infected BTI insect cells preincubated for 30 mins followed by addition of p-tyramine as substrate measured over 45 mins by Amplex Red MAO assay

Adenosine receptor A2a (Rattus norvegicus), sequence (P30543 whole entry): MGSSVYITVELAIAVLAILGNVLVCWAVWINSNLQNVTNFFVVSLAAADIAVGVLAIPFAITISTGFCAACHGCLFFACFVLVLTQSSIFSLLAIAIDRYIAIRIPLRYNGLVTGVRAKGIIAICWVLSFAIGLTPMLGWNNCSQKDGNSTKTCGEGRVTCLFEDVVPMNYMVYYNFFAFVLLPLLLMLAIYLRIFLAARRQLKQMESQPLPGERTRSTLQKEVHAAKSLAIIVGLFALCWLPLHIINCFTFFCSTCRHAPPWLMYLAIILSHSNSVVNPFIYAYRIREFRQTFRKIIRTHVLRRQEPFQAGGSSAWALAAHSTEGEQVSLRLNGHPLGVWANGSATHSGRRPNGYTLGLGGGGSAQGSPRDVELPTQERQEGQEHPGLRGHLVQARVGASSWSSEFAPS
Adenosine receptor A2a, sequence (P30543 whole entry): as above

Activity [1]	Activity [2]	Ki (Adenosine receptor A2a)	inhibition at 10 µM [3]	Ki (Adenosine receptor A1)	Activity [4]	IC50 [5]	Ki (Adenosine receptor A2b)	Activity [6]	Ki (Adenosine receptor A3)	inhibition at 10 µM [7]	IC50 [8]	SMILES
5%	31%	> 1000 nM	10%	> 1500 nM	23%	> 10000 nM	> 1000 nM	17%	> 10000 nM	–	–	COc1cccc(CCN2CCn3c(nc4c3c(=O)n(C)c(=O)n4C)C2)c1
11%	–	9610 nM	39%	> 1500 nM	43%	> 10000 nM	> 1000 nM	9%	> 10000 nM	-12%	> 10000 nM	Cn1c(=O)c2c(nc3n2CCN(CCc2ccccc2)C3)n(C)c1=O
8%	30%	> 1000 nM	1%	> 1500 nM	43%	> 10000 nM	> 1000 nM	5%	> 10000 nM	–	–	COc1cccc(CCN2CCn3c(nc4c3c(=O)n(C)c(=O)n4C)C2)c1OC
11%	–	2850 nM	–	> 1500 nM	–	802 nM	> 1000 nM	35%	15000 nM	14%	> 10000 nM	Cn1c(=O)c2c(nc3n2CCN(CCc2ccc(Cl)c(Cl)c2)C3)n(C)c1=O
22%	–	3050 nM	–	> 1500 nM	10%	932 nM	> 1000 nM	34%	> 10000 nM	–	–	Cn1c(=O)c2c(nc3n2CCN(CCc2c(Cl)cccc2Cl)C3)n(C)c1=O
21%	–	1310 nM	61%	> 1500 nM	10%	–	> 1000 nM	14%	> 10000 nM	13%	> 10000 nM	Cn1c(=O)c2c(nc3n2CCN(CCc2cccc(Cl)c2)C3)n(C)c1=O
13%	–	2730 nM	–	> 1500 nM	43%	723 nM	> 1000 nM	32%	> 10000 nM	11%	> 10000 nM	Cn1c(=O)c2c(nc3n2CCN(CCc2ccccc2Cl)C3)n(C)c1=O

More lines, now with the values behind:

SMILES	Activity [1]	Activity [2]	Ki (Adenosine receptor A2a)	inhibition at 10 µM [3]	Ki (Adenosine receptor A1)	Activity [4]	IC50 [5]	Ki (Adenosine receptor A2b)	Activity [6]	Ki (Adenosine receptor A3)	inhibition at 10 µM [7]	IC50 [8]
Cn1c(=O)c2c(nc3n2CCN(c2ccc(F)cc2)C3)n(C)c1=O	9%	–	2130 nM	–	> 1500 nM	24%	2230 nM	> 1000 nM	4%	> 10000 nM	–	–
Cn1c(=O)c2c(nc3n2CCN([C@@H]2CCc4ccccc42)C3)n(C)c1=O	8%	–	5080 nM	–	> 1500 nM	38%	2150 nM	> 1000 nM	28%	> 10000 nM	–	–
CC(CN1CCn2c(nc3c2c(=O)n(C)c(=O)n3C)C1)c1ccccc1 (stereo not drawn)	11%	–	4520 nM	11%	> 1500 nM	31%	> 10000 nM	> 1000 nM	27%	> 10000 nM	23%	> 10000 nM
Cn1c(=O)c2c(nc3n2CCN(CCOc2ccc(Cl)c(Cl)c2)C3)n(C)c1=O	21%	–	2420 nM	27%	1250 nM	36%	> 10000 nM	> 1000 nM	–	> 10000 nM	14%	> 10000 nM
Cn1c(=O)c2c(nc3n2CCN(CCc2ccc(F)c(F)c2)C3)n(C)c1=O	12%	19%	> 1000 nM	60%	> 1500 nM	11%	–	> 1000 nM	10%	> 10000 nM	–	–
Cn1c(=O)c2c(nc3n2CCN(c2cccc4ccccc24)C3)n(C)c1=O	10%	–	2940 nM	–	> 1500 nM	29%	828 nM	> 1000 nM	17%	> 10000 nM	16%	> 10000 nM
Cn1c(=O)c2c(nc3n2CCN(CCc2cccc(C(F)(F)F)c2)C3)n(C)c1=O	12%	–	2580 nM	63%	> 1500 nM	29%	10000 nM	> 1000 nM	6%	> 10000 nM	–	–
COc1cccc(N2CCn3c(nc4c3c(=O)n(C)c(=O)n4C)C2)c1	21%	–	1010 nM	–	> 1500 nM	32%	1160 nM	> 1000 nM	16%	> 10000 nM	3%	> 10000 nM
Cn1c(=O)c2c(nc3n2CCN(c2ccccc2)C3)n(C)c1=O	8%	–	3830 nM	61%	> 1500 nM	32%	–	> 1000 nM	12%	> 10000 nM	-1%	> 10000 nM
Cn1c(=O)c2c(nc3n2CCN(c2cccc(F)c2)C3)n(C)c1=O	3%	–	2920 nM	–	> 1500 nM	18%	1500 nM	> 1000 nM	20%	> 10000 nM	8%	> 10000 nM

From ChEMBL document CHEMBL4428125, “8-Substituted 1,3-dimethyltetrahydropyrazino[2,1-f]purinediones: Water-soluble adenosine receptor antagonists and monoamine oxidase B inhibitors” (Bioorg Med Chem, 2016)
